Entries after “also recorded” stand apart in the source; their conditions may differ.

One assay deals with RG cells. As to conditions: 1 mM dB-cAMP; cited from earlier work.
A further assay concerns RG progenitor cells. In words: Maturation (mitogenic-like) activity on rat glial (RG) progenitor cell monolayers, scored visually. It counts as cell-based. As to conditions: 72 hours, above untreated baseline. On the procedure: Since no appropriate CNS-derived cells are available for the detection of Ca^+2 mobilization, a continuous cell line of glial stem cells was established in culture in order to detect mitogenic-like effects scored upon visual examination. Glial cells from normal brain following kainic acid-induced lesions were established in continuous cell culture as previously described by Singh VK and Van Alstyne D., Brain Res (1978) 155:418-421.) Briefly, 1 ul of a solution of kainic acid monohydrate (Sigma), containing 5 nmole kainic acid in 0.9% saline, was injected into rat striatum under anaesthesia. Rats were anaesthetized and decapitated 5 days following injection and the brains were harvested immediately and placed in a sterile glass culture dish. The striatum from the injection site was dissected, placed in MEM (Gibco) containing 0.2% glucose, 10% fetal calf serum, 5 units/ml penicillin, 5 ug/ml streptomycin and then further minced using a sterile scalpel. The culture dish was then incubated at 37° C. in a humidified atmosphere containing 5% CO2. Each day for the first 3-4 days, the unattached tissue fragments were removed, washed once in fresh medium and returned to the culture dish until a complete monolayer was formed. The resulting monolayers were then subcultured every 5-6 days after trypsinization. The monolayers were treated with 0.25% trypsin (Gibco) for 5 minutes at 22° C. The cells were collected by low speed centrifugation, washed twice with complete growth medium, counted and replated in glass culture dishes. Once the cell line was established in glass dishes, the cells were then adapted and transferred to plastic culture dishes.
The mitogenic effect of diBcAMP on RG monolayers is shown in FIGS. 7A (untreated) and 7B (treated) cells after 24 hours. […] Mature cells were characterized using ThermoFisher Scientific CD11b and GFAP (Glial Fibrillary Acidic Protein) monoclonal antibodies AlexaFluor commonly used to detect microglial- and astrocyte-specific markers respectively. (Tran, E., et al. J. Neuroimmunology 74 (1997) 121-129). FIGS. 8A-8D show identical cells under brightfield illumination, with positive staining for microglial and astrocyte markers (CD11b and GFAP markers respectively. The identification of the majority of these cells as microglia, a subset of astrocytes, is significant since an overabundance of microglia has been associated with the development of AD (Weizmann Institute of Science, “The brain's rejuvenating cells,” Science Daily, 9 June, 2017:sciencedaily.com/release/2017/06/170609135903).
Peptides derived from amyloid beta and synthesized by Kinexus Inc. (Vancouver, Canada) were tested for their effects on RG cell cultures, according to the method of Yankner BR, et al., Science (1990) 250:279-282. Since septapeptides may be too small or unstable to form avid bonds with cell surface receptors, the 7 mer was bracketed within a slightly longer 10-mer construct, in order to maximize stability during the incubation procedure. A randomized sequence was used as a negative control.
These peptides were dissolved in DMSO (dimethyl sulfoxide) to maintain stability. This solvent slightly altered the shape of some cells at lower dilutions of peptide, giving a high background. Therefore, to avoid any interference with the results, RG cells were incubated in the presence of peptide concentrations ranging from […] to 10^-7 M for 72 hours. Positive cells were counted and data are presented as the number greater than the baseline number of maximal mature glia in untreated control cultures achieved by day 3, taken to be zero. Results are shown in Table 3 and photos of transformed cells are contained in FIGS. 9A and 9B.

The subject of the next assay is THP-1 cells. In words: Ca+2 mobilization (Indo-1AM fluorescence) and desensitization in THP-1 monocytic cells. It counts as cell-based. The conditions noted are these: for Ca^+2 flux: peptide alone; for DESENSITIZATION: desensitization of subsequent Ca+2 mobilization by MCP-1 or heterologous septapeptide. From the text:
Alternately, chemokine activity can be measured more quantitatively using Ca^+2 mobilization. Chemokines including MCP-1, -2 and -3 bind to several transmembrane, G-protein-linked receptors on the surface of monocytes, macrophages and microglia. Ligand binding induces signal transduction through the receptor-associated heterotrimeric G-proteins, leading to the generation of free Ca^+2 in the cytoplasm of chemokine-stimulated cells. The Ca^+2 rise is transient, and can be measured using a spectrofluorimeter. (The Cytokine Handbook) A typical readout is represented in FIG. 3, showing a positive Ca^+2 mobilization response to MCP-1 in THP-1 cells. THP-1 monocytic cells were loaded with the Ca^+2 indicator dye Indo-1AM and their cytoplasmic Ca^+2 content was measured during laser excitation. As Ca^+2 increases in the cytoplasm, the relative fluorescence intensity (RFI) of the dye increases in real time, exciting the detectors in the spectrofluorimeter. For example, after MCP-1 challenge of THP-1 cells, the RFI increases rapidly, and returns to baseline after about 60 seconds, as exemplified by the “spike” in the trace in FIG. 3 (the smaller peak before the large spike is an artifact generated by the introduction of the sample). Because the heterotrimeric G-proteins involved in the generation of the Ca^+2 signal are both rapidly dissociated and deactivated by phosphorylation, the increase in cytoplasmic Ca^+2 after ligand engagement can be desensitized. Therefore, challenging the cells a second time with MCP-1 would not result in a second spike, nor would a Ca^+2 spike result from subsequent challenge by another ligand which engages the same MCP-1 receptor
Some of the bacterial septapeptide MRHAS's (Sigma) were tested for their ability to increase cytoplasmic Ca^+2, and to desensitize subsequent Ca^+2 mobilization by MCP-1 and heterologous septapeptides. […] These included QQTAPKA (SEQ ID NO: 12) of L.monocytogenes (Figure. 4) and QVQNNKP (SEQ ID NO: 13) from H.influenzae type b (FIG. 5).

In the case of `CCCC(=O)Nc1ncnc2c1ncn2[C@@H]1O[C@@H]2COP(=O)(O)O[C@H]2[C@H]1OC(=O)CCC` [diBcAMP, dibutyryl cyclicAMP], in the assay with RG cells, the “cells with intracellular astrocyte-specific GFA protein” value is recorded as 80% and the “cells with surface oligodendrocyte-specific galactocerebroside (GC)” value is “less than 10%”.
On to “FLVKAHEQFH [Peptide #3, reference compound]”, for which the “Maturation activity, % conversion” value in the assay on RG progenitor cells (peptide 10^−6 M (1 uM)) and in the assay with RG progenitor cells (peptide 10^−7 M (100 nM)) was less than 1% each time.
Turning to “MCP-1: human Monocyte Chemoattractant Protein 1, chemokine, positive control”, the “Ca^+2 flux” value is “positive” with THP-1 cells and “positive Ca^+2 responses” with THP-1 cells (listed as hMCP-1).
“QQQPPKA [S. pneumoniae-derived MRHAS septapeptide]”: in the assay with THP-1 cells, the DESENSITIZATION entry was “blocks activation by the Listeria-derived MRHAS; also recorded: positive for QQTAPKA” and the “Ca^+2 flux” value is “negative; also recorded: did not induce a Ca^+2 signal”.
With “QQTAPKA [L. monocytogenes-derived MRHAS septapeptide]”, in the assay with THP-1 cells, the DESENSITIZATION entry is “lack of subsequent desensitization to MCP 1; also recorded: negative for MCP-1” and the “Ca^+2 flux” value is “positive; also recorded: mild Ca^+2 agonists”.
With “QVQNNKP [H. influenzae type b-derived MRHAS septapeptide]”, the “relative fluorescence intensity (RFI)” value in the assay on THP-1 cells (Ca+2 mobilization response) amounted to 2.0. In the assay with THP-1 cells, the DESENSITIZATION entry is given as “blocks activation by the Listeria-derived MRHAS; also recorded: positive for QQTAPKA” and the “Ca^+2 flux” value is “mild Ca^+2 agonists; also recorded: weakly positive”.
Take ^1DAEFRHDSGYEVHHQKLVF^19 [Peptide #1]: the “Maturation activity, % conversion” value in the assay with RG progenitor cells (peptide 10^−6 M (1 uM)) was 63%; in the assay on RG progenitor cells (peptide 10^−7 M (100 nM)) it was 41%.
With “^13HHEQKLVFFAE^22 (HHQKLVFFAE) [Peptide #2]”, the “Maturation activity, % conversion” value in the assay with RG progenitor cells (peptide 10^−6 M (1 uM)) was 41%; in the assay on RG progenitor cells (peptide 10^−7 M (100 nM)) it was 27%; with RG progenitor cells (peptide 10^−7 M (100 nM), listed as HHQKLVFFAE), 27%.

(Values after patent US20240248100A1, “SEPTAPEPTIDES ASSOCIATED WITH NEURODEGENERACY” (SEPTA THERAPEUTICS, INC., priority 2018, published 2024).)
